Data as given in patent publication US20240197666A1, “DITERPENOID COMPOUNDS THAT ACT ON PROTEIN KINASE C (PKC)” (K-Gen Therapeutics, Inc., priority 2021, published 2024).
Like-named read-outs stand apart in the source and are kept apart here.

Key:
[1] = test system: NFκB-driven transcription in HeLa-NFκB luciferase reporter cell line; assay: NFκB luciferase reporter assay; conditions: Homo sapiens, HeLa, 16 h, read-out: NFκB-luc HeLa cells EC50 (μM)
Mino (Lymphoma) = assay: Proliferation of Mino; format: cell-based
Experimental: (§1) The diterpenoid compounds were tested in A549, a non-small cell lung cancer cell line harboring a K-Ras activating mutation. Briefly, A549 cells at a density of 1,000 cells/well were seeded in 96-well plates and incubated at 37° C. for 24 hours. A series of different concentrations of compound stocks (500×) were prepared by 3-fold serial dilution in DMSO. These compounds were further diluted in culture media and then added to cells so that the final DMSO concentration was not exceeding 0.25%. After 96 hours of incubation, 50 μL of CellTiter Glo reagent (Promega) was added to each well and luminescence was measured after 10 minutes using EnVision (PerkinElmer). Luminescence from cells treated with DMSO alone was set as Max and % of inhibition was calculated as follows: Inhibition %=(Max-Sample value)/Max×100. Data was analyzed using XL-fit software (ID Business Solutions Ltd.) and IC50, relative IC50, and % of top inhibition was calculated. Some of the compounds in this disclosure were very potent in blocking proliferation of A549 lung cancer cells at low nM range. In addition, potency of inhibiting A549 proliferation correlated well with its binding affinity to PKCs for this series of compounds. In other words, higher affinity binders had stronger inhibitory effects on A549 proliferation. This further support the notion that activation, rather than inhibition, of certain PKC isoforms is required to block proliferation of cancer cells, some of which may harbor K-Ras mutations. This is in sharp contrast to previous literature and common belief that inhibition of PKC is necessary to block cancer cell growth (Kang, 2014, New Journal of Science, 2014:1-36). Data presented here is in agreement with recent findings that many loss-of-function but not gain-of-function mutations of PKC isoforms have been identified in many human cancers (Antal et al., 2015, Cell, 160:489-502).
(§2) The compounds in this disclosure were tested for their potency in blocking proliferation of a few other cancer cells lines, including K-Ras mutant pancreatic cell lines Panc2.13 and KP-4, leukemia cell line HL-60, and lymphoma cell lines Namalwa and Mino. Similar procedures as in Example 67 were followed. Initial cell numbers seeded in 96-well plates were different for different cell lines: 3000 cells/well for Panc2.13; 800-1000 cells/well for KP-4; 5000 cells/well for HL-60; 5000-10000 cells/well for Namalwa and Mino. A ratio of (IC50 of K101)/(IC50 of compound) (data in parenthesis in Table 5) was used to normalize the compound potency from different assay batches to a common comparator K101.

HL-60 (Leukemia) = assay: Proliferation of HL-60; format: cell-based
Experimental: as §1, §2

Namalwa (Lymphoma) = assay: Proliferation of Namalwa; format: cell-based; conditions: for IC50: read-out: IC50 Namalwa (Lymphoma)
Experimental: as §1, §2

C1b domain of human PKCε = biological target: T1, C1b domain of human PKCε (Homo sapiens, UniProt Q02156); assay: biochemical; format: binding; conditions: 3H-PDBu competition
T1 construct: Genes encoding C1b domains of human PKCα, δ, ε, θ, and PKD1 (PKCμ) were synthesized; made in house; host or cells: E. coli BL21(DE3)
Experimental: (§3) Compounds described in this disclosure were tested for binding affinity to C1b domain of PKC isoforms. Compound binding affinity to C1b domain of PKC isoforms was derived from competitive binding assay using radioactive tracer ^3H-PDBu and recombinant GST-C1b or full-length of human PKC proteins based on modified procedures from Methods in Molecular Biology, vol.
(§4) Genes encoding C1b domains of human PKCα, δ, ε, θ, and PKD1 (PKCμ) were synthesized and inserted into pGEX-2TK or pGEX-4T1 vectors for expression and production of GST-C1b proteins in E. coli BL21(DE3) via IPTG induction. The target proteins were purified by glutathione sepharose 4B and followed by ion exchange chromatography if needed to achieve purity >70%. Aliquots of the purified proteins were stored at −80 degree for binding assay (storage buffer: 20 mM Tris pH 8.0, 200 mM NaCl, 10% glycerol, 1 mM DTT).
(§5) The plate was incubated at 37° C. on a shaker at 300 rpm for 10 minutes and then put on ice for 20 minutes. […] The bottom of the filter plate was sealed and 50 μL of MicroScint-20 (PerkinElmer) cocktail was added to each well. ^3H-PDBu trapped in each well was counted using PerkinElmer MicroBeta2 Reader. Data were analyzed using GraphPad Prism5 with the model “log(inhibitor) vs. response-variable slope” to fit the IC50, and then IC50 was transformed to Ki using Cheng-Prusoff equation: Ki=IC50/(1+added radio ligand/Kd). Kd is the binding affinity of each protein preparation to ^3H-PDBu, determined experimentally.

A549 cell line = assay: Proliferation of A549 (CellTiter Glo); format: cell-based; conditions: Homo sapiens, read-out: IC50 μM (A549 Cell Line)
Experimental: as §1

[2] = biological target: T2, C1b domain of human PKD1 (PKCμ) (Homo sapiens, UniProt Q15139); assay: Competitive 3H-PDBu binding assay, C1b domain of PKD1 (PKCμ); conditions: 3H-PDBu competition
T2 construct: Genes encoding C1b domains of human PKCα, δ, ε, θ, and PKD1 (PKCμ) were synthesized; made in house; host or cells: E. coli BL21(DE3)
T2 sequence (Q15139 270-320 limits assumed): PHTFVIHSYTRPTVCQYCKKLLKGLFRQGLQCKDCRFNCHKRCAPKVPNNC
Experimental: as §3, §4, §5

C1b domain of human PKCδ = biological target: T3, C1b domain of human PKCδ (Homo sapiens, UniProt Q05655); assay: biochemical; format: binding; conditions: 3H-PDBu competition
T3 construct: Genes encoding C1b domains of human PKCα, δ, ε, θ, and PKD1 (PKCμ) were synthesized; made in house; host or cells: E. coli BL21(DE3)
Experimental: as §3, §4, §5

Hela cells = assay: In vitro scratch wound healing assay; format: cell-based; conditions: 24h
Experimental: Scratch wound healing assay creates a gap by scratching a confluent monolayer of cells to mimic a wound and then measures the ability of cells to fill up the gap (wound) in the presence of DMSO or test compounds. 1.2-1.5×10^5 Hela cells in 1 mL media RPMI-1640 with 10% FBS were seeded in 24-well plates. Cells were starved for overnight in the same media without FBS when cells became confluent. After starvation, a scratch was made in the middle of the well and the plates were washed three times to remove detached cells. DMSO or different concentrations of compounds were diluted and added to the cells. The assay plates were put into Incucyte S3 and scanned with 4× scanner setting regularly. The imaging results were exported and the wound area was analyzed by ImageJ. Wound healing or closure was calculated by the following formula: wound healing %=(wound area at 0h−wound area at 24h)/wound area 0h*100%. Relative wound healing was calculated by dividing wound healing % of compound treatment to that of DMSO*100%.

T3 sequence (Q05655 230-280 limits assumed): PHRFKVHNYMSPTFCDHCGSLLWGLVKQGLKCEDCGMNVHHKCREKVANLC
T1 sequence (Q02156 242-292 limits assumed): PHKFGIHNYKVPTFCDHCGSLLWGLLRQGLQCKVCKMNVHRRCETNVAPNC

Compound | Ki [2] [nM] | IC50 (A549 cell line; A549, 96 h) [µM] | Ki (C1b domain of human PKCδ) [nM] | other results
CC1=C[C@H]2[C@@]3(O)[C@H](C)C[C@]4(OC(=O)Cc5ccccc5)[C@H]([C@@H]3C=C(CO)C[C@]2(O)C1=O)C4(C)C | – | – | – | EC50 [1]: 0.03 to 0.06 µM; ratio (IC50 of K101)/(IC50 of compound) Mino (Mino (Lymphoma)): 15.6; IC50 (Mino (Lymphoma); Homo sapiens, MINO; read-out: IC50 Mino (Lymphoma)): 1 to 10 nM; ratio (IC50 of K101)/(IC50 of compound) HL-60 (HL-60 (Leukemia)): 18; IC50 (HL-60 (Leukemia); Homo sapiens, HL-60; read-out: IC50 HL-60 (Leukemia)): 10 to 30 nM; ratio (IC50 of K101)/(IC50 of compound) Namalwa (Namalwa (Lymphoma)): 3.29; IC50 (Namalwa (Lymphoma)): 10 to 30 nM; Ki (C1b domain of human PKCε): 10 to 30 nM; IC50 (A549 cell line; A549, 96 hours, CellTiter Glo): 0.03 to 0.06 µM
CC1=C[C@H]2[C@@]3(O)[C@H](C)C[C@]4(OC(=O)CC5CC6(CNC6)C5)[C@H]([C@@H]3C=C(CO)C[C@]2(O)C1=O)C4(C)C | 10 to 30 | > 30 | – | –
CC1=C[C@H]2[C@@]3(O)[C@H](C)C[C@]4(OC(=O)CCc5scnc5C)[C@H]([C@@H]3C=C(CO)C[C@]2(O)C1=O)C4(C)C | 10 to 30 | 0.2 to 0.6 | – | –
CC1=C[C@H]2[C@@]3(O)[C@H](C)C[C@]4(OC(=O)[C@@H](N)CC(C)(C)C)[C@H]([C@@H]3C=C(CO)C[C@]2(O)C1=O)C4(C)C | – | 0.2 to 0.6 | 10 to 30 | –
CC1=C[C@H]2[C@@]3(O)[C@H](C)C[C@]4(OC(=O)[C@@H](N)CC5CC5)[C@H]([C@@H]3C=C(CO)C[C@]2(O)C1=O)C4(C)C | – | 2 to 5 | 60 to 100 | –
CC1=C[C@H]2[C@@]3(O)[C@H](C)C[C@]4(OC(=O)CCCCCCCCCCCC(=O)O)[C@H]([C@@H]3C=C(CO)C[C@]2(O)C1=O)C4(C)C | 60 to 100 | 10 to 30 | – | –
CC1=C[C@H]2[C@@]3(O)[C@H](C)C[C@]4(OC(=O)[C@H](N)CC5CCCCC5)[C@H]([C@@H]3C=C(CO)C[C@]2(O)C1=O)C4(C)C | – | 0.2 to 0.6 | 10 to 30 | –
CSC[C@H](N)C(=O)O[C@@]12C[C@@H](C)[C@@]3(O)[C@@H](C=C(CO)C[C@]4(O)C(=O)C(C)=C[C@@H]34)[C@@H]1C2(C)C | 60 to 100 | 5 to 10 | – | –
CC1=C[C@H]2[C@@]3(O)[C@H](C)C[C@]4(OC(=O)[C@@H](N)Cc5c[nH]c6ccccc56)[C@H]([C@@H]3C=C(CO)C[C@]2(O)C1=O)C4(C)C | – | 10 to 30 | 10 to 30 | –
CC1=C[C@H]2[C@@]3(O)[C@H](C)C[C@]4(OC(=O)[C@H](N)Cc5c[nH]c6ccccc56)[C@H]([C@@H]3C=C(CO)C[C@]2(O)C1=O)C4(C)C | 10 to 30 | 10 to 30 | – | –
CC1=C[C@H]2[C@@]3(O)[C@H](C)C[C@]4(OC(=O)C[C@H](N)c5ccccc5)[C@H]([C@@H]3C=C(CO)C[C@]2(O)C1=O)C4(C)C | 10 to 30 | 1 to 2 | – | –
CC1=C[C@H]2[C@@]3(O)[C@H](C)C[C@]4(OC(=O)C[C@@H](N)Cc5ccccc5)[C@H]([C@@H]3C=C(CO)C[C@]2(O)C1=O)C4(C)C | 10 to 30 | 1 to 2 | – | –
CC1=C[C@H]2[C@@]3(O)[C@H](C)C[C@]4(OC(=O)[C@@H](N)C(C)(C)c5ccc(C(F)(F)F)cc5)[C@H]([C@@H]3C=C(CO)C[C@]2(O)C1=O)C4(C)C | – | 0.03 to 0.06 | – | EC50 [1]: 0.06 to 0.1 µM; ratio (IC50 of K101)/(IC50 of compound) Mino (Mino (Lymphoma)): 15.7; IC50 (Mino (Lymphoma); Homo sapiens, MINO, read-out: IC50 Mino (Lymphoma)): 1 to 10 nM; Relative wound healing to control (%) (Hela cells; 20 nM): 213%; Relative wound healing to control (%) (Hela cells; 60 nM): 134%; Relative wound healing to control (%) (Hela cells; 200 nM): 201%; ratio (IC50 of K101)/(IC50 of compound) HL-60 (HL-60 (Leukemia)): 12; IC50 (HL-60 (Leukemia); Homo sapiens, HL-60, read-out: IC50 HL-60 (Leukemia)): 10 to 30 nM; ratio (IC50 of K101)/(IC50 of compound) Namalwa (Namalwa (Lymphoma)): 3.5; IC50 (Namalwa (Lymphoma)): 10 to 30 nM; Ki (C1b domain of human PKCε): 10 to 30 nM
CC1=C[C@H]2[C@@]3(O)[C@H](C)C[C@]4(OC(=O)C[C@@H](N)CCc5ccccc5)[C@H]([C@@H]3C=C(CO)C[C@]2(O)C1=O)C4(C)C | – | 0.6 to 1 | 10 to 30 | –
CC1=C[C@H]2[C@@]3(O)[C@H](C)C[C@]4(OC(=O)[C@H](N)CCCc5ccccc5)[C@H]([C@@H]3C=C(CO)C[C@]2(O)C1=O)C4(C)C | 10 to 30 | 0.2 to 0.6 | – | –
CC1=C[C@H]2[C@@]3(O)[C@H](C)C[C@]4(OC(=O)[C@@H](O)Cc5ccccc5)[C@H]([C@@H]3C=C(CO)C[C@]2(O)C1=O)C4(C)C | 10 to 30 | 0.2 to 0.6 | – | –
CC1=C[C@H]2[C@@]3(O)[C@H](C)C[C@]4(OC(=O)[C@H](N)CCc5ccc(C(F)(F)F)cc5)[C@H]([C@@H]3C=C(CO)C[C@]2(O)C1=O)C4(C)C | 10 to 30 | 0.2 to 0.6 | – | –
CC1=C[C@H]2[C@@]3(O)[C@H](C)C[C@]4(OC(=O)C[C@H](N)Cc5ccccc5)[C@H]([C@@H]3C=C(CO)C[C@]2(O)C1=O)C4(C)C | – | 1 to 2 | 10 to 30 | –
CC1=C[C@H]2[C@@]3(O)[C@H](C)C[C@]4(OC(=O)[C@@H](N)CCCCCCCCc5ccccc5)[C@H]([C@@H]3C=C(CO)C[C@]2(O)C1=O)C4(C)C | – | 0.001 to 0.01 | 10 to 30 | –
CN[C@@H](CC1CCCCC1)C(=O)O[C@@]12C[C@@H](C)[C@@]3(O)[C@@H](C=C(CO)C[C@]4(O)C(=O)C(C)=C[C@@H]34)[C@@H]1C2(C)C | – | 0.2 to 0.6 | 10 to 30 | –
CC1=C[C@H]2[C@@]3(O)[C@H](C)C[C@]4(OC(=O)[C@H](N)CCCCCCc5ccc(C(F)F)cc5)[C@H]([C@@H]3C=C(CO)C[C@]2(O)C1=O)C4(C)C | 10 to 30 | 0.1 to 0.2 | 10 to 30 | –
